From PMC9218685, “Legume Plant Peptides as Sources of Novel Antimicrobial Molecules Against Human Pathogens” (Frontiers in Molecular Biosciences, 2022)
≈ marks a conversion by molar mass, not a printed value. Entries after “also recorded” stand apart in the source; their conditions may differ. Peptide text beside a SMILES is read from it.

Tests used:
[1] = system: E. coli, S. enteritidis, P. aeruginosa, L. monocytogenes, S. aureus, E. faecalis, K. pneumoniae and A. baumannii; test: Antimicrobial activity assay, spectrum over the eight tested pathogenic bacteria; format: cell-based; conditions: 3 h treatment of ~10^7 log phase bacteria, peptides 25 to 0.8 µM; active = MBC ≤25 µM
Method in brief: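 Log-phase bacteria (~10^7) treated 3 h with NCR peptides in potassium-phosphate buffer pH 7.4, two-fold dilutions from 25 µM to 0.8 µM. MBC is the lowest concentration completely eliminating viable bacteria. Strains: E. faecalis ATCC 29212, S. aureus HNCMO112011, L. monocytogenes ATCC 19111, P. aeruginosa ATCC 27853, E. coli ATCC 8739, S. enterica ATCC 13076, K. pneumoniae NCTC 13440, A. baumannii ATCC 17978.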

[2] = system: A. baumannii; test: Scanning electron microscopy of cell morphology; format: cell-based, Acinetobacter baumannii; conditions: 30 min treatment, peptide 1.6 or 3.125 µM as in Figure 3 legend
Protocol: (§1) A. baumannii and C. albicans were grown and treated the same way as for the membrane permeability assay. Cells were then fixed with 2.5% (v/v) glutaraldehyde in phosphate buffered saline (PBS, pH 7.4). 5 μl of the above bacterial and yeast suspensions were spotted on a silicon disk coated with 0.01% Poly-L-Lysine. The filters were washed twice with PBS and gradually dehydrated with ethanol series (30, 50, 70, 80%, and three times 100% ethanol, each for minimum 30 min). The samples were dried with a critical point dryer (K850: Quorum Technologies Ltd.), followed by 12 nm gold coating and observed under a JEOL JSM-7100F/LV scanning electron microscope.
FIGURE 3 Viability, membrane permeability and morphology of A. baumannii cells after NCR treatment (A–L) SYTO9/PI staining observed with confocal microscope, (M–X) Cell morphology observed with SEM. (A,M) untreated control, (B,N) CaNCR13, 3.125 µM, (C,O) CaNCR63, 3.125 µM, (D,P) CaNCR63_1-20, 3.125 µM, (E,Q) CaNCR63_15-34, 3.125 µM, (F,R) MsNCR443, 3.125 µM, (G,S) MsNCR463_16-35, 1.6 µM, (H,T) MsNCR463_17-30, 3.125 µM, (I,U) PsNCR349, 1.6 µM, (J,V) PsNCR349_26-50, 3.125 µM, (K,W) PsNCR349_31-50, 3.125 µM, (L,X) PsNCR352, 1.6 µM.

[3] = system: Lambda DNA/HindIII marker; test: Gel retardation assay (DNA aggregation); format: binding; conditions: 100 ng DNA, 5 or 10 µM peptide in water, 30 min at room temperature, 1% agarose gel
Protocol: Interactions of peptides with DNA was visualized with gel retardation assay ([Hsu et al., 2005]). 100 ng Lambda DNA/HindIII marker (ThermoFisher Scientific) was incubated with 0, 5 or 10 µM synthetic NCRs or NCR derivatives in water for 30 min at room temperature and then loaded into 1% agarose gel. Electrophoresis of DNA fragments separated the mobile HindIII-digested DNA fragments while the aggregated DNA remained in the loading wells.
FIGURE 6 Aggregation of DNA by NCR peptides. Lambda HindIII digested DNA was incubated without (0) or with NCR peptides at 5 or 10 μM concentration.

[4] = system: C. albicans; test: Scanning electron microscopy of cell morphology; format: cell-based, Candida albicans; conditions: 30 min treatment, peptide 1.6, 3.125 or 25 µM as in Figure 4 legend
Protocol: as §1

[5] = system: Acinetobacter baumannii (ATCC 17978); test: microbe, parasite or virus in culture; format: cell-based; conditions: ATCC 17978, 3 h
Method in brief: (§2)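 MBC read as lowest peptide concentration giving no viable bacteria; ~10^7 log-phase cells, PPB pH 7.4, 3 h treatment, 2-fold dilutions from 25 µM.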

[6] = system: Salmonella enterica (ATCC 13076); format: cell-based; conditions: ATCC 13076, 3 h
Method in brief: as §2

[7] = system: Listeria monocytogenes (ATCC 19111); format: cell-based; conditions: ATCC 19111, 3 h
Method in brief: as §2

[8] = system: Escherichia coli (ATCC 8739); format: cell-based; conditions: ATCC 8739, 3 h
Method in brief: as §2

[9] = system: Klebsiella pneumoniae (NCTC 13440); format: cell-based; conditions: NCTC 13440, 3 h
Method in brief: as §2

[10] = system: Enterococcus faecalis (ATCC 29212); format: cell-based; conditions: for Ability to kill E. faecalis: 3 h, ~10^7 log phase bacteria, peptides ≤25 µM; for MBC Enterococcus faecalis: ATCC 29212, 3 h
Method in brief: as §2

[11] = system: Pseudomonas aeruginosa (ATCC 27853); format: cell-based; conditions: ATCC 27853, 3 h
Method in brief: as §2

[12] = system: Staphylococcus aureus (HNCMO112011); format: cell-based; conditions: HNCMO112011, 3 h
Method in brief: as §2

Question: `CC[C@H](C)[C@H](NC(=O)[C@H](CCCNC(=N)N)NC(=O)[C@@H](NC(=O)[C@H](CS)NC(=O)[C@H](CCCCN)NC(=O)[C@H](CS)NC(=O)[C@H](Cc1ccccc1)NC(=O)CNC(=O)[C@H](CC(N)=O)NC(=O)[C@@H](NC(=O)[C@H](CS)NC(=O)[C@H](CCCCN)NC(=O)[C@@H]1CCCN1C(=O)[C@@H](NC(=O)[C@H](CCCCN)NC(=O)[C@@H]1CCCN1C(=O)[C@H](CCCCN)NC(=O)[C@H](CCCNC(=N)N)NC(=O)[C@H](CS)NC(=O)[C@H](C)NC(=O)[C@H](Cc1ccccc1)NC(=O)[C@H](CCCCN)NC(=O)[C@H](CCCCN)NC(=O)[C@H](CS)NC(=O)[C@H](CC(=O)O)NC(=O)[C@H](CCCCN)NC(=O)[C@H](CC(=O)O)NC(=O)[C@H](CO)NC(=O)[C@H](CCC(N)=O)NC(=O)[C@H](CS)NC(=O)[C@@H]1CCCN1C(=O)[C@@H](N)CCCCN)C(C)C)[C@@H](C)CC)C(C)C)C(=O)N[C@@H](Cc1c[nH]c2ccccc12)C(=O)O` [CaNCR13] (H-KPCQSDKDCKKFACRKPKVPKCINGFCKCVRIW-OH; N-terminus assumed) was tested. Which “Antibacterial spectrum over the eight tested bacterial strains” value [1] did it give?
Answer: broad-spectrum activity

Question: What about the “Morphology of A. baumannii cells by SEM” value [2] of the same compound?
Answer: Only dead cells were visible

Question: What about the “Aggregation of HindIII-digested λ DNA (DNA retained in loading wells)” value [3] of the same compound?
Answer: did not

Question: And the “Morphology of C. albicans cells by SEM” value [4]?
Answer: aggregation of shrunken cells in a spider net like matrix

Question: For `CC[C@H](C)[C@H](NC(=O)[C@H](CCC(N)=O)NC(=O)[C@H](CCCCN)NC(=O)[C@H](CCCNC(=N)N)NC(=O)[C@@H](NC(=O)[C@H](Cc1ccccc1)NC(=O)[C@H](Cc1ccccc1)NC(=O)[C@H](Cc1ccc(O)cc1)NC(=O)[C@H](Cc1c[nH]cn1)NC(=O)[C@H](CS)NC(=O)[C@H](Cc1ccccc1)NC(=O)[C@H](CCCCN)NC(=O)CNC(=O)[C@@H](NC(=O)[C@H](CS)NC(=O)[C@H](CCSC)NC(=O)[C@H](CCSC)NC(=O)[C@@H](NC(=O)[C@@H](NC(=O)[C@@H]1CCCN1C(=O)[C@H](CCCCN)NC(=O)[C@@H](NC(=O)[C@@H](NC(=O)[C@H](CCCCN)NC(=O)[C@@H]1CCCN1C(=O)[C@H](CS)NC(=O)[C@H](CC(=O)O)NC(=O)[C@H](CC(=O)O)NC(=O)[C@@H](NC(=O)[C@@H](NC(=O)[C@H](C)NC(=O)[C@H](CS)NC(=O)[C@H](CCCNC(=N)N)NC(=O)[C@@H](NC(=O)[C@H](CC(=O)O)NC(=O)[C@H](CC(C)C)NC(=O)[C@H](CCCCN)NC(=O)[C@@H](N)CCC(=O)O)[C@@H](C)CC)[C@@H](C)O)C(C)C)C(C)C)[C@@H](C)O)C(C)C)C(C)C)[C@@H](C)O)C(C)C)C(=O)N[C@@H](CC(C)C)C(=O)O` [NCR073] (H-EKLDIRCATVDDCPKVTKPVVMMCTGKFCHYFFVRKQIL-OH; N-terminus assumed), which “Antibacterial spectrum over the eight tested bacterial strains” value [1] is on record?
Answer: capable of killing all tested bacteria; also recorded: active against all the eight tested pathogens

Question: And the “MBC Acinetobacter baumannii” value [5]?
Answer: 1.6 µM (≈ 7.3 µg/mL)

Question: What about the “MBC Salmonella enterica” value [6] of the same compound?
Answer: 6.25 µM (≈ 28.5 µg/mL)

Question: What about the “MBC Listeria monocytogenes” value [7] of the same compound?
Answer: 6.25 µM (≈ 28.5 µg/mL)

Question: What about the “MBC Escherichia coli” value [8] of the same compound?
Answer: 3.125 µM (≈ 14.3 µg/mL)

Question: And the “MBC Klebsiella pneumoniae” value [9]?
Answer: 6.25 µM (≈ 28.5 µg/mL)

Question: And the “Ability to kill E. faecalis” value [10]?
Answer: able to kill

Question: And the “MBC Enterococcus faecalis” value [10]?
Answer: 6.25 µM (≈ 28.5 µg/mL)

Question: What about the “MBC Pseudomonas aeruginosa” value [11] of the same compound?
Answer: 6.25 µM (≈ 28.5 µg/mL)

Question: And the “MBC Staphylococcus aureus” value [12]?
Answer: 6.25 µM (≈ 28.5 µg/mL)

Question: Which results are given for `CC[C@H](C)[C@H](N)C(=O)N[C@@H](Cc1ccc(O)cc1)C(=O)N[C@@H](Cc1ccccc1)C(=O)N[C@@H](CCCNC(=N)N)C(=O)N[C@@H](CCCCN)C(=O)N1CCC[C@H]1C(=O)N1CCC[C@H]1C(=O)N1CCC[C@H]1C(=O)N[C@@H](CS)C(=O)N[C@H](C(=O)N[C@H](C(=O)N[C@@H](CC(=O)O)C(=O)N[C@@H](CCCCN)C(=O)N[C@@H](CC(=O)O)C(=O)N[C@@H](CS)C(=O)N1CCC[C@H]1C(=O)N[C@@H](CCC(N)=O)C(=O)N[C@@H](CCSC)C(=O)N[C@@H](CCCCN)C(=O)N[C@H](C(=O)N[C@@H](CC(N)=O)C(=O)N[C@@H](CC(N)=O)C(=O)N[C@H](C(=O)N[C@@H](CCCNC(=N)N)C(=O)N[C@@H](CS)C(=O)N[C@@H](CCCNC(=N)N)C(=O)N[C@@H](CCCCN)C(=O)NCC(=O)N[C@@H](Cc1ccccc1)C(=O)N[C@@H](CS)C(=O)N[C@H](C(=O)N[C@@H](CCC(N)=O)C(=O)N[C@H](C(=O)N[C@@H](Cc1c[nH]cn1)C(=O)N[C@@H](CCCCN)C(=O)N[C@@H](Cc1ccccc1)C(=O)N[C@H](C(=O)N1CCC[C@H]1C(=O)O)[C@@H](C)O)[C@@H](C)CC)[C@@H](C)CC)C(C)C)[C@@H](C)CC)[C@@H](C)O)[C@@H](C)CC` [NCR358] (H-IYFRKPPPCITDKDCPQMKINNVRCRKGFCIQIHKFTP-OH; N-terminus assumed)?
Answer: Antibacterial spectrum over the eight tested bacterial strains [1]: capable of killing all tested bacteria; also recorded: active against all the eight tested pathogens; MBC Acinetobacter baumannii [5]: 3.125 µM (≈ 14.2 µg/mL); MBC Salmonella enterica [6]: 3.125 µM (≈ 14.2 µg/mL); MBC Listeria monocytogenes [7]: 3.125 µM (≈ 14.2 µg/mL); MBC Escherichia coli [8]: 1.6 µM (≈ 7.26 µg/mL); MBC Klebsiella pneumoniae [9]: 25 µM (≈ 113 µg/mL); Ability to kill E. faecalis [10]: able to kill; MBC Enterococcus faecalis [10]: 6.25 µM (≈ 28.4 µg/mL); MBC Pseudomonas aeruginosa [11]: 3.125 µM (≈ 14.2 µg/mL); MBC Staphylococcus aureus [12]: 3.125 µM (≈ 14.2 µg/mL)

Question: `CC[C@H](C)[C@H](NC(=O)[C@H](CC(N)=O)NC(=O)[C@H](Cc1ccc(O)cc1)NC(=O)[C@H](CCCCN)NC(=O)[C@H](CCCCN)NC(=O)[C@H](Cc1ccccc1)NC(=O)[C@H](CCCCN)NC(=O)[C@@H]1CCCN1C(=O)[C@H](CS)NC(=O)[C@H](CC(=O)O)NC(=O)[C@H](CCCCN)NC(=O)[C@H](CC(=O)O)NC(=O)[C@@H](NC(=O)[C@@H](NC(=O)[C@H](CS)NC(=O)[C@H](Cc1ccc(O)cc1)NC(=O)[C@H](CCC(N)=O)NC(=O)[C@H](CCCNC(=N)N)NC(=O)[C@@H](NC(=O)[C@H](CC(C)C)NC(=O)[C@@H]1CCCN1C(=O)[C@H](CC(N)=O)NC(=O)[C@H](Cc1ccccc1)NC(=O)[C@H](CO)NC(=O)[C@@H](N)CC(=O)O)[C@@H](C)CC)C(C)C)[C@@H](C)O)C(=O)N[C@@H](CCCNC(=N)N)C(=O)N[C@@H](CS)C(=O)N[C@@H](CCCNC(=N)N)C(=O)N[C@@H](CCCCN)C(=O)NCC(=O)N[C@@H](Cc1ccccc1)C(=O)N[C@@H](CS)C(=O)N[C@H](C(=O)N[C@@H](CCC(N)=O)C(=O)N[C@H](C(=O)N[C@@H](CC(N)=O)C(=O)NCC(=O)NCC(=O)O)C(C)C)C(C)C` [NCR377] (H-DSFNPLIRQYCVTDKDCPKFKKYNIRCRKGFCVQVNGG-OH; N-terminus assumed) was tested. Which “Antibacterial spectrum over the eight tested bacterial strains” value [1] did it give?
Answer: kill all bacteria except E. faecalis

Question: What about the “MBC Acinetobacter baumannii” value [5] of the same compound?
Answer: 6.25 µM (≈ 27.8 µg/mL)

Question: And the “MBC Salmonella enterica” value [6]?
Answer: 6.25 µM (≈ 27.8 µg/mL)

Question: And the “MBC Listeria monocytogenes” value [7]?
Answer: 12.5 µM (≈ 55.5 µg/mL)

Question: And the “MBC Escherichia coli” value [8]?
Answer: 3.125 µM (≈ 13.9 µg/mL)

Question: And the “MBC Klebsiella pneumoniae” value [9]?
Answer: 12.5 µM (≈ 55.5 µg/mL)

Question: And the “MBC Pseudomonas aeruginosa” value [11]?
Answer: 3.125 µM (≈ 13.9 µg/mL)

Question: And the “MBC Staphylococcus aureus” value [12]?
Answer: 6.25 µM (≈ 27.8 µg/mL)
